Assay: Intrinsic dissolution of itraconazole mixed phase co-crystals
Format: physicochemical
Conditions: 3% sodium lauryl sulfate 20% isopropanol:0.1 N HCl (1:1)
Source text: FIG. 5 is a graph showing the intrinsic dissolution rate of itraconazole mixed phase co-crystals in a 3% sodium lauryl sulfate 20% isopropanol:0.1 N HCl (1:1) media.

Question: Which “Intrinsic Dissolution Rate” value does the source give for Itraconazole [Control (Intact API)] here?
Answer: 11.1 mcg/min/cm^2

Source: patent US9682043B2, “Method of preparation of mixed phase co-crystals with active agents” (MedCrystalForms, LLC, priority 2003, dated 2017)
